Assay results from ChEMBL document CHEMBL2040782 (Eur J Med Chem, 2012).
pIC50: −log10 of the molar value.

Tests used:
Rattus norvegicus = assay: Wake promoting activity in EEG/EMG Sprague-Dawley rat model assessed as slow wave sleep and rapid eye movement sleep time at 100 mg/kg, ip measured up to 3 hrs (reference value: 65 +/- 9 mins); type: functional; settings: route intraperitoneal
CYP3A4 = CYP3A4 (Homo sapiens, UniProt P08684); assay: Inhibition of CYP3A4 at 10 uM; type: ADME
CYP2D6 = CYP2D6 (Homo sapiens, UniProt P10635); assay: Inhibition of CYP2D6 at 10 uM; type: ADME
CYP3A5 = CYP3A5 (Homo sapiens, UniProt P20815); assay: Inhibition of CYP3A5 at 10 uM; type: ADME
Cytochrome P450 3A4 = Cytochrome P450 3A4 (Homo sapiens, UniProt P08684); assay: Inhibition of CYP3A4; type: ADME
[1] = target: T1, Sodium-dependent dopamine transporter (Rattus norvegicus, UniProt P23977); assay: Inhibition of rat DAT-mediated dopamine reuptake
Cytochrome P450 3A5 = Cytochrome P450 3A5 (Homo sapiens, UniProt P20815); assay: Inhibition of CYP3A5; type: ADME
[2] = target: T1, Sodium-dependent dopamine transporter; assay: Inhibition of rat DAT
Cytochrome P450 1A2 = target: T2, Cytochrome P450 1A2 (Homo sapiens, UniProt P05177); assay: (§1) Inhibition of CYP1A2 ( at 100 uM); type: ADME; settings: 100 µM
T2 sequence (P05177 whole entry): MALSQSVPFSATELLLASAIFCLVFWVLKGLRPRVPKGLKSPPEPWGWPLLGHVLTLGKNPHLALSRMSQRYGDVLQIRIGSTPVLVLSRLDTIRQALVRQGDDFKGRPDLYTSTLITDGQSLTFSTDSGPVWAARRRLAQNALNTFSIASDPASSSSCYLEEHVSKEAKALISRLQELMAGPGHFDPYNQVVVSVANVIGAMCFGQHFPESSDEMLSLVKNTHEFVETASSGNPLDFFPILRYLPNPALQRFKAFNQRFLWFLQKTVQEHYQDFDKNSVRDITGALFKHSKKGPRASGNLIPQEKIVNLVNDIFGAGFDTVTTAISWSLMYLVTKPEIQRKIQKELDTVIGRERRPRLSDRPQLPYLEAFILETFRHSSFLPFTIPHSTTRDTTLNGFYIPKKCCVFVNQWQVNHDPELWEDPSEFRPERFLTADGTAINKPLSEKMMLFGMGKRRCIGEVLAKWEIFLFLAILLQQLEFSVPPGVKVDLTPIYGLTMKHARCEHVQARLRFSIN

Cytochrome P450 2C19 = Cytochrome P450 2C19 (Homo sapiens, UniProt P33261); assay: Inhibition of CYP2C19; type: ADME
Transporter = Transporter (Rattus norvegicus, UniProt Q63380); assay: Inhibition of rat NET-mediated norepinephrine reuptake
Cytochrome P450 2D6 = Cytochrome P450 2D6 (Homo sapiens, UniProt P10635); assay: Inhibition of CYP2D6; type: ADME
Cytochrome P450 1A1 = target: T3, Cytochrome P450 1A1 (Homo sapiens, UniProt P04798); assay: (§2) Inhibition of CYP1A1 ( at 100 uM); type: ADME; settings: 100 µM
T3 sequence (P04798 whole entry): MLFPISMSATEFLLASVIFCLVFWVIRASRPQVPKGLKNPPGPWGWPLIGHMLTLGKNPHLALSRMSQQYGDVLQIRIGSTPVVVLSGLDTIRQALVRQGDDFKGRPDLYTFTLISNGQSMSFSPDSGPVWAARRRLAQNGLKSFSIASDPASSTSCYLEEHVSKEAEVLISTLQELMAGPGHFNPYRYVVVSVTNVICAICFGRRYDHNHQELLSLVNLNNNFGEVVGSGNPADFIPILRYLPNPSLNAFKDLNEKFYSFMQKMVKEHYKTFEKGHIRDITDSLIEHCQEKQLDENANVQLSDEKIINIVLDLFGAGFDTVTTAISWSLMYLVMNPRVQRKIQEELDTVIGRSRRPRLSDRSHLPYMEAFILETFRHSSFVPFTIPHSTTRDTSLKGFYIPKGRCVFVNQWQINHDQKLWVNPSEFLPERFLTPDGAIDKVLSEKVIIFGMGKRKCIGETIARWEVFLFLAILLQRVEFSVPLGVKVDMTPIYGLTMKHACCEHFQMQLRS

[3] = target: Sodium-dependent serotonin transporter (Rattus norvegicus, UniProt P31652); assay: Inhibition of rat SERT-mediated serotonin reuptake
[4] = target: Transporter (Rattus norvegicus) (UniProt Q63380); settings: 10 uM
Description: Inhibition of rat NET at 10 uM

[5] = target: Sodium-dependent serotonin transporter (Rattus norvegicus) (UniProt P31652); assay: Inhibition of rat SERT at 10 uM
Cytochrome P450 2C9 = Cytochrome P450 2C9 (Homo sapiens, UniProt P11712); assay: Inhibition of CYP2C9; type: ADME
CYP1A2 = target: T4, CYP1A2 (Homo sapiens, UniProt P05177); assay: as §1; type: ADME
T4 sequence (P05177 whole entry): T2 sequence (P05177 whole entry)

CYP1A1 = target: T5, CYP1A1 (Homo sapiens, UniProt P04798); assay: as §2; type: ADME
T5 sequence (P04798 whole entry): T3 sequence (P04798 whole entry)

T1 sequence (P23977 whole entry): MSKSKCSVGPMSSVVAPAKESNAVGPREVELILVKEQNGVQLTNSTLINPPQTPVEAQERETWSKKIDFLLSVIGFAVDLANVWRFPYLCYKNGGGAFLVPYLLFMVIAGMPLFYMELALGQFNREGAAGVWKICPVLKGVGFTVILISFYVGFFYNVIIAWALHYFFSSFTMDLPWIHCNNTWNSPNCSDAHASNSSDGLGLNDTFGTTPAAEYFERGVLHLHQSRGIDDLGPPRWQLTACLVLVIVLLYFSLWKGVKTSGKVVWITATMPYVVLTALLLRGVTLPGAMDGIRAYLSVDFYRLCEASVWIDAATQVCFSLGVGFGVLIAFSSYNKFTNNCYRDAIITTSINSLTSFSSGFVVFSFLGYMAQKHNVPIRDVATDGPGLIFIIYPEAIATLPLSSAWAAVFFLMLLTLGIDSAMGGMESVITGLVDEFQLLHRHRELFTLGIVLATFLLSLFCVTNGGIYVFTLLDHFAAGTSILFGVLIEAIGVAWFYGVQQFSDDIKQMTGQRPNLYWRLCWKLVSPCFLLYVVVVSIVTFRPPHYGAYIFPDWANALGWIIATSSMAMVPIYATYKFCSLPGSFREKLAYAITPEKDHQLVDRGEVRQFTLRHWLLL
Cytochrome P450 3A4, sequence (P08684 whole entry): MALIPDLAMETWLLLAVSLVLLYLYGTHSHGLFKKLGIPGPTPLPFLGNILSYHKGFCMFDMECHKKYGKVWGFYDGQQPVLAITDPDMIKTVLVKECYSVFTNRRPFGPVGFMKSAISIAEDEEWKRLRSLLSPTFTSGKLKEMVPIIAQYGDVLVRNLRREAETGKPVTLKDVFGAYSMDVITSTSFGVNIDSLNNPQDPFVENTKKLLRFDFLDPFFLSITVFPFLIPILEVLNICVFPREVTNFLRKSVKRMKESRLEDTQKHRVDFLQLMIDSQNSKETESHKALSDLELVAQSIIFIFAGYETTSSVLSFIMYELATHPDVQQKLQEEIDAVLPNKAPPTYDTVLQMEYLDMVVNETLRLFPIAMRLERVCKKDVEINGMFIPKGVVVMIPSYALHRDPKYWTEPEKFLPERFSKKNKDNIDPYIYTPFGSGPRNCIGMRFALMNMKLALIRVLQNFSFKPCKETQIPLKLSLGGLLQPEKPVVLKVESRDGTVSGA
Cytochrome P450 2C19, sequence (P33261 whole entry): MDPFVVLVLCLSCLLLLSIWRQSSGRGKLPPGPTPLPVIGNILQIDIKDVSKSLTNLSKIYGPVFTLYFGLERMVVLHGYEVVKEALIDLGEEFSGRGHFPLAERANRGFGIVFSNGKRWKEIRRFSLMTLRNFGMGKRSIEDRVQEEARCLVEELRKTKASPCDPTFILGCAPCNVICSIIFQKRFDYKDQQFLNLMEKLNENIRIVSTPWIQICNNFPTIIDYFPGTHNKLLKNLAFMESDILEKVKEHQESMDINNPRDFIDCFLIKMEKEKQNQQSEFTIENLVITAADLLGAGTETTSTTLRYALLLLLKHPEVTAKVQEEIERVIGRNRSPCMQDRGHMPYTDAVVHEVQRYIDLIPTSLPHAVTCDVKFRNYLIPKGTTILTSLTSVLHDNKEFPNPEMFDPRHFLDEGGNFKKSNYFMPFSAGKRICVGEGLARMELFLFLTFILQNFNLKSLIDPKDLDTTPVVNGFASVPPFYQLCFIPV
Sodium-dependent serotonin transporter (Rattus norvegicus), sequence (P31652 whole entry): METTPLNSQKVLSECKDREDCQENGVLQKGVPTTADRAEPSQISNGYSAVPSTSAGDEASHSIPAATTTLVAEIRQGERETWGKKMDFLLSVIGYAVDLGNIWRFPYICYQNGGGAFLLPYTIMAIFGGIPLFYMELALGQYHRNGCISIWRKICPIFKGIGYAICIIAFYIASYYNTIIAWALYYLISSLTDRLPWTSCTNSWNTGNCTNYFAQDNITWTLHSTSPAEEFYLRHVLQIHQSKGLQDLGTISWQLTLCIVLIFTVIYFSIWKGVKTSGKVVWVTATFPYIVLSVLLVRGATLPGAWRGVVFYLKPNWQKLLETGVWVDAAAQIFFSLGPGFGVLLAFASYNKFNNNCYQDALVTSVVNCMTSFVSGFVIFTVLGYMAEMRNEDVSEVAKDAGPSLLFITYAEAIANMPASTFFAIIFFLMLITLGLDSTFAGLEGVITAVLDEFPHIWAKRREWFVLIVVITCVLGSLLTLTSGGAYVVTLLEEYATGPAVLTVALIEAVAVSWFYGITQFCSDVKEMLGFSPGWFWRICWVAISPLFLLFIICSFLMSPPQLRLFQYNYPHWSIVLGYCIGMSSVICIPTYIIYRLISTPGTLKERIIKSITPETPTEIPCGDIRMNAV
Sodium-dependent serotonin transporter, sequence (P31652 whole entry): as above
Cytochrome P450 3A5, sequence (P20815 whole entry): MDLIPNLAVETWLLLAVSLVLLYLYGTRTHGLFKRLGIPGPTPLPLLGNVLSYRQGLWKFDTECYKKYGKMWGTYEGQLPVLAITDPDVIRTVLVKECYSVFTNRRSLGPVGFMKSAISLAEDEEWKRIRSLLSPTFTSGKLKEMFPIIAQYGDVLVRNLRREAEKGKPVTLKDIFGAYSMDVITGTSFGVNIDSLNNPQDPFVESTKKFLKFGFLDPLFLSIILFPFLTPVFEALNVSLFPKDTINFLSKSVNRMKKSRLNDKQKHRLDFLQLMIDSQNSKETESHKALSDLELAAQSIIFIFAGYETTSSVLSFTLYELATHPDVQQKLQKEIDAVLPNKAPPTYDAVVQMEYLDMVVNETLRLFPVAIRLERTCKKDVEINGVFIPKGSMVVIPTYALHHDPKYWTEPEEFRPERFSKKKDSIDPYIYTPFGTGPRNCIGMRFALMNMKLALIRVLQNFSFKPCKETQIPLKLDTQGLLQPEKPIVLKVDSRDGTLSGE
Transporter (Rattus norvegicus), sequence (Q63380 as listed by the source): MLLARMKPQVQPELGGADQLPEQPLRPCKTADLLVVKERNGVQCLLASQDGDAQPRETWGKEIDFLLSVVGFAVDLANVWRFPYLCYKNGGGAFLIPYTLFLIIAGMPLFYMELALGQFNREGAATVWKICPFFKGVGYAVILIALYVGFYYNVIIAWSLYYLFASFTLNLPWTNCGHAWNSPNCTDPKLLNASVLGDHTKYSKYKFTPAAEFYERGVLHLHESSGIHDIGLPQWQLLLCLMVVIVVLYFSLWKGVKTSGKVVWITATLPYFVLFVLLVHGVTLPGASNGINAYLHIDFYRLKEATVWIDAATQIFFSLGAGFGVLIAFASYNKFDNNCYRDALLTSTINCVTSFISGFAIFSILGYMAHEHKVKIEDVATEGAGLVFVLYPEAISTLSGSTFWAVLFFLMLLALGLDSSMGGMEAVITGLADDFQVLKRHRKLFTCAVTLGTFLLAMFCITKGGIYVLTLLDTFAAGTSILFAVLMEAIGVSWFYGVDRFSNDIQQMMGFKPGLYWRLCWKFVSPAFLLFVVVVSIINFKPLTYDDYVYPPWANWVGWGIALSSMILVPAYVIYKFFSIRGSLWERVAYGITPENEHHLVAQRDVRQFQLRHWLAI
Transporter, sequence (Q63380 whole entry): as the sequence (Q63380 as listed by the source) above
Cytochrome P450 2D6, sequence (P10635 whole entry): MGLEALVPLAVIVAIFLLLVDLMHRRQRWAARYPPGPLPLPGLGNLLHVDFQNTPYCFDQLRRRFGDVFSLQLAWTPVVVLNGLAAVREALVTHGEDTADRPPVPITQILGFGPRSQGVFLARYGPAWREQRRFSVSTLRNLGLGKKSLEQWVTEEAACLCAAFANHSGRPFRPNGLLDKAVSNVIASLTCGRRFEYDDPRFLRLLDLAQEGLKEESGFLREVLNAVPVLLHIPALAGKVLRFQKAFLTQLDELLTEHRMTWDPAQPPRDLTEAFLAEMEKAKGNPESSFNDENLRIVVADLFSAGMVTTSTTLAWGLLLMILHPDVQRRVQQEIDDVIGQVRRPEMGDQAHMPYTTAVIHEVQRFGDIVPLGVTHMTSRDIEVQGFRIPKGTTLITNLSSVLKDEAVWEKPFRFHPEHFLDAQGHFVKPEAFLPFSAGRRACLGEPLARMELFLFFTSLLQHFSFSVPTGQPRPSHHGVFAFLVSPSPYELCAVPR
CYP3A4, sequence (P08684 whole entry): as the sequence (P08684 whole entry) above
CYP3A5, sequence (P20815 whole entry): as the sequence (P20815 whole entry) above
CYP2D6, sequence (P10635 whole entry): as the sequence (P10635 whole entry) above

NC(=O)C[S+]([O-])Cc1ccccc1Oc1ccc(F)cc1 (racemic)
Time (Rattus norvegicus): 123 min

NC(=O)C[S+]([O-])C(c1ccccc1)c1ccccc1 (stereo unspecified) [MODAFINIL]
Time (Rattus norvegicus): 117 min
inhibition at 10 µM (CYP3A4): < 10%
inhibition at 10 µM (CYP2D6): < 10%
inhibition at 10 µM (CYP3A5): < 10%

NC(=O)C[S+]([O-])Cc1ccc(Oc2ccc(Cl)c(Cl)c2)cc1 (stereo unspecified)
Time (Rattus norvegicus): 88 min

NC(=O)C[S+]([O-])Cc1ccccc1Oc1ccc(Cl)c(Cl)c1 (single isomer, unassigned; (+)) [listing 1 of 2 here]
Time (Rattus norvegicus; 100 mg/kg): 167 min
pIC50 (Cytochrome P450 3A4): 4.49
pIC50 [1]: 5.96
pIC50 (Cytochrome P450 3A5): 4.49
pIC50 [2]: 6.05
inhibition (INH) (Cytochrome P450 1A2): 18%
pIC50 (Cytochrome P450 2C19): 4.70
pIC50 (Transporter): 5.51
pIC50 (Cytochrome P450 2D6): 4.05
inhibition (INH) (Cytochrome P450 1A1): 18%
pIC50 [3]: 4.48

NC(=O)C[S+]([O-])Cc1ccccc1Oc1cc(Cl)cc(Cl)c1 (racemic)
Time (Rattus norvegicus): 117 min

NC(=O)C[S+]([O-])Cc1ccccc1Oc1ccc2ccccc2c1 (racemic)
Time (Rattus norvegicus): 131 min

NC(=O)C[S+]([O-])Cc1ccccc1Oc1ccc(Cl)cc1Cl (racemic)
Time (Rattus norvegicus): 74 min

NC(=O)C[S+]([O-])Cc1ccccc1Oc1ccc(Cl)c(Cl)c1 (single isomer, unassigned; (+)) [listing 2 of 2 here]
inhibition [4]: 39%
inhibition [5]: 24%

NC(=O)C[S+]([O-])Cc1ccccc1Oc1ccc(Cl)c(Cl)c1 (single isomer, unassigned; (-)) [listing 1 of 2 here]
pIC50 (Cytochrome P450 2C9): 3.67
Time (Rattus norvegicus; 100 mg/kg): 168 min
pIC50 (Cytochrome P450 3A4): 4.40
pIC50 [1]: 5.96
pIC50 (Cytochrome P450 3A5): 4.40
pIC50 [2]: 6.70
inhibition at 100 µM (CYP1A2): 10%
pIC50 (Cytochrome P450 2C19): 4.52
pIC50 (Transporter): 5.89
pIC50 (Cytochrome P450 2D6): 3.97
inhibition at 100 µM (CYP1A1): 10%
pIC50 [3]: 4.51

NC(=O)C[S+]([O-])Cc1ccccc1Oc1ccc(Cl)c(Cl)c1 (single isomer, unassigned; (-)) [listing 2 of 2 here]
inhibition [4]: 48%
inhibition [5]: 30%

NC(=O)C[S+]([O-])Cc1ccccc1Oc1ccc(F)c(Cl)c1 (racemic)
Time (Rattus norvegicus): 160 min

NC(=O)C[S+]([O-])Cc1ccccc1Oc1cccc(Cl)c1Cl (racemic)
Time (Rattus norvegicus): 120 min

NC(=O)C[S+]([O-])Cc1ccccc1Oc1ccc(Cl)cc1 (racemic)
Time (Rattus norvegicus): 165 min

NC(=O)C[S+]([O-])Cc1ccccc1Oc1ccc(Cl)c(F)c1 (racemic)
Time (Rattus norvegicus): 176 min

NC(=O)C[S+]([O-])Cc1ccccc1Oc1ccc(Cl)c(Cl)c1 (racemic)
Time (Rattus norvegicus; 100 mg/kg): 180 min
